The target of the experiment is T1, 5-Lipoxygenase from RBL-1 20,000 xg Supernatant (Rattus norvegicus, UniProt P12527).
T1 construct: supermatant from 1.5 million homogenized RBL-1 cells; endogenous in cells; host or cells: RBL-1 cells, 20,000 x g supernatant of homogenate
T1 sequence (P12527 1-673): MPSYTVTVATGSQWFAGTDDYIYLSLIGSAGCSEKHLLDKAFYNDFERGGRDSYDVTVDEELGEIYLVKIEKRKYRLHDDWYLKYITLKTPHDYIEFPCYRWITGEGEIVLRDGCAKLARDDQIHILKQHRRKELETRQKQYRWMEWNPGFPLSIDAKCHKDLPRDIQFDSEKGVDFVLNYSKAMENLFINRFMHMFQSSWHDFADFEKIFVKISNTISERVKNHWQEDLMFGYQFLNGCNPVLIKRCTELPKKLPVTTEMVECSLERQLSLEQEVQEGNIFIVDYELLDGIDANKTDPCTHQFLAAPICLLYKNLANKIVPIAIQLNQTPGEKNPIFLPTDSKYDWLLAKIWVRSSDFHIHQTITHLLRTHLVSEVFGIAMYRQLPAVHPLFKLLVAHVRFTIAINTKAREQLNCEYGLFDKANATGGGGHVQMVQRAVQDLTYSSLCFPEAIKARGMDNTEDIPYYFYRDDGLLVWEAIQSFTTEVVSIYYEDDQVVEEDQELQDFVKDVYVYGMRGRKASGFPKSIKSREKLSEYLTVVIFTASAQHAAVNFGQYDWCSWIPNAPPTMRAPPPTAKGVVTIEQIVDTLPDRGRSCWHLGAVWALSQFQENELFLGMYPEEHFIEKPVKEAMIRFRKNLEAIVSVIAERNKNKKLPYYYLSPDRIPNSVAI
The experiment in a line: In vitro inhibition of 5-lipoxygenase from RBL-1 20,000 xg supernatant. Type of experiment: biochemical. The conditions noted are these: radiolabeled arachidonic acid. On the procedure: Assays to determine 5-lipoxygenase inhibitory activity were performed in […] incubations containing the 20,000xg supermatant from 1.5 million homogenized RBL-1 cells and various concentrations of the test compound. Reactions were initiated by addition of radiolabeled arachidonic acid and terminated by acidification and ether extraction. Reaction products were separated from nonconverted substrate by thin layer chromatography and measured by liquid scintillation spectroscopy. All incubations are performed in triplicate. Inhibition of 5-lipoxygenase activity was calculated as the ratio of the amount of product formed in the presence and absence of inhibitor. […] (Dyer, R.D.; Haviv, F.; Hanel, A. M.; Bornemier, D. A.; Carter, G. W. Fed. Proc., Fed. Am. Soc. Exp. Biol. 1984, 43, 1462A).
Molecule `CNC(=O)N(O)C(C)c1ccc(OCc2ccccc2)cc1` (centres unmarked) [Example 2, N-hydroxy-N-1-(4-phenylmethoxyphenyl) ethyl N'-methyl urea] displayed an IC50 of 370 nM. This counts as sub-micromolar.

With `CC(c1ccc(OCc2ccccc2)cc1)N(O)C(=O)N(C)C` (centres unmarked) [Example 3], the half-maximal inhibitory concentration (IC50) worked out at 680 nM.

In turn, `CNC(=O)N(O)Cc1ccc(OCc2ccccc2)cc1` [Example 6, N-hydroxy-N-(4-phenylmethoxyphenylmethyl)-N'-methyl-urea] returned an IC50 of 540 nM.

Molecule `CC(c1ccc(OCCc2ccccc2)cc1)N(O)C(N)=O` (centres unmarked) [Example 8, N-hydroxy-N-(1-(4-(2-phenyl)ethoxyphenyl)ethyl) urea] registered an IC50 of 330 nM. This IC50 lies about 1.6-fold lower than the previous one.

Turning to `CC(c1ccc2ccccc2c1)N(O)C(=O)NO` (centres unmarked) [Example 10, N,N'-dihydroxy-N-(1-(2-naphthyl)ethyl) urea], the IC50 is 870 nM.

Take `CCCCOc1ccc(C(C)N(O)C(N)=O)cc1` (centres unmarked) [Example 11, N-hydroxy-N-(1-(4-butoxyphenyl)ethyl) urea]: half-maximal inhibition (IC50) was put at 1100 nM.

On to `CCCCOc1cccc(C(C)N(O)C(N)=O)c1` (centres unmarked) [Example 13, N-hydroxy-N-(1-(3-butoxyphenyl)ethyl) urea], for which the IC50 amounted to 2800 nM.

`Cc1ccsc1C(C)N(O)C(N)=O` (centres unmarked) [Example 46, N-hydroxy-N-1-(3-methylthien-2-yl)ethyl urea]: the IC50 came to 2100 nM.

As for `CC(c1ccc(-c2ccccn2)s1)N(O)C(N)=O` (centres unmarked) [Example 48, N-hydroxy-N-(1-(5-pyrid-2-yl)thien-2-yl)ethyl urea], half-maximal inhibition (IC50) was put at 1700 nM.

The molecule `CNC(=O)N(O)Cc1ccc(C)s1` [Example 52, N-hydroxy-N-1-(5-methylthien-2-yl)methyl-N'-methyl urea] registered a half-inhibitory concentration (IC50) of 3900 nM. This IC50 lies about 2.3-fold higher than the previous one.

Turning to `NC(=O)N(O)Cc1ccc(-c2ccccc2)s1` [Example 53, N-hydroxy-N-(1-(5-phenylthien-2-yl)methyl) urea], half-maximal inhibition (IC50) was put at 200 nM.

`CNC(=O)N(O)Cc1ccc(-c2ccccc2)s1` [Example 54, N-hydroxy-N-(1-(5-phenylthien-2-yl)methyl)-N'-methyl urea] yielded an IC50 of 310 nM.

In turn, `CC(c1ccc(Cc2ccccc2)s1)N(O)C(N)=O` (centres unmarked) [Example 57, N-hydoxy-N-(1-(5-benzylthien-2-yl)ethyl) urea] yielded an IC50 of 420 nM.

The molecule `CCOC(=O)CNC(=O)N(O)C(C)c1cc(C)sc1C` (centres unmarked) [Example 59] returned an IC50 of 990 nM. This IC50 is about 2.4-fold higher than that of the molecule before.

Regarding `Cc1cc(C(C)N(O)C(=O)NCCO)c(C)s1` (centres unmarked) [Example 60, N-hydroxy-N-(1-(2,5-dimethylthien-3-yl)ethyl)-N'-(2-hydroxyethyl) urea], the IC50 stood at 3500 nM.

As for `COC(=O)CCCNC(=O)N(O)C(C)c1ccsc1` (centres unmarked) [Example 61], the IC50 is 2100 nM.

Consider `CCOC(=O)CNC(=O)N(O)C(C)c1ccsc1` (centres unmarked) [Example 62], for which the IC50 is 4200 nM.

`NC(=O)N(O)CCCc1ccsc1` [Example 69, N-hydroxy-N-(3-(1-thien-3-yl)propyl) urea] had an IC50 of 1500 nM.

In turn, `Cc1ccc(CC(C)N(O)C(N)=O)s1` (centres unmarked) [Example 72, N-Hydroxy-N-(2-(1-(5-methylthien-2-yl))propyl) urea] registered an IC50 of 800 nM.

Turning to `CNC(=O)N(O)C(C)c1ccc(Br)cc1` (centres unmarked) [Example 98, N-Hydroxy-N-1-(4-bromophenyl)ethyl-N'-methyl-urea], half-maximal inhibition (IC50) was put at 1100 nM. The IC50 values of the last two molecules are within 1.5-fold of each other.

Consider `CNC(=O)N(O)C(C)c1ccc(F)cc1F` (centres unmarked) [Example 104, N-Hydroxy-N-(1-(2,4-difluorophenyl)ethyl)-N'-methylurea], for which it took 3900 nM to reach half-maximal inhibition (IC50).

In turn, `CNC(=O)N(O)C(C)c1ccc(Cl)cc1` (centres unmarked) [Example 108, N-Hydroxy-N-(1-(4-chlorophenyl)ethyl)-N'-methyl urea] had an IC50 of 400 nM.

For `CNC(=O)N(O)C(C)c1ccc(F)cc1` (centres unmarked) [Example 110, N-Hydroxy-N-(1-(4-fluorophenyl)ethyl)-N'-methyl urea], it took 2300 nM to reach half-maximal inhibition (IC50).

In turn, `CNC(=O)N(O)C(C)c1ccc(F)c(Br)c1` (centres unmarked) [Example 114, N-Hydroxy-N-(1-(3-bromo-4-fluorophenyl)ethyl)-N'-methyl urea] displayed an IC50 of 900 nM.

For the molecule `CNC(=O)N(O)C(C)c1ccc(C)c(Br)c1` (centres unmarked) [Example 115, N-Hydroxy-N-(1-(3-bromo-4-methylphenyl)ethyl)-N'-methyl urea], the IC50 stood at 600 nM.

As for `COc1ccc(C(C)N(O)C(N)=O)cc1` (centres unmarked) [Example 116, N-Hydroxy-N-(1-(4-methoxyphenyl)ethyl) urea], the IC50 is 4400 nM.

For `CNC(=O)N(O)C(C)c1ccc(OC)cc1` (centres unmarked) [Example 117, N-Hydroxy-N-(1-(4-methoxyphenyl)ethyl)-N'-methyl urea], the IC50 worked out at 4430 nM.

`CCCCOc1ccc(C(C)N(O)C(N)=O)cc1` (centres unmarked) [Example 119, N-Hydroxy-N-(1-(4-butoxyphenyl)ethyl) urea] displayed an IC50 of 530 nM.

On to `C=CCN(CC=C)c1ccc(C(C)N(O)C(N)=O)cc1` (centres unmarked) [Example 121, N-Hydroxy-N-(1-(4-bis-allylaminophenyl)ethyl) urea], for which the IC50 stood at 740 nM.

Take `CC(c1ccc(F)c(Br)c1)N(O)C(N)=O` (centres unmarked) [Example 122, N-Hydroxy-N-(1-(3-bromo-4-fluorophenyl)ethyl) urea]: half-maximal inhibition (IC50) required 800 nM.

Take `Cc1cc(C(C)N(O)C(N)=O)ccc1Cl` (centres unmarked) [Example 123, N-Hydroxy-N-(1-(4-chloro-3-methylphenyl)ethyl) urea]: the IC50 is 500 nM.

Molecule `CNC(=O)N(O)C(C)c1ccc(Cl)c(C)c1` (centres unmarked) [Example 124, N-Hydroxy-N-(1-(4-chloro-3-methylphenyl)ethyl)-N'-methyl urea] displayed an IC50 of 600 nM. The IC50 values of the last two molecules are within 1.5-fold of each other.

On to `NC(=O)N(O)Cc1cccc(Oc2ccccc2)c1` [Example 125], for which inhibition was half-maximal at 400 nM (IC50).

Take `CNC(=O)N(O)Cc1cccc(Oc2ccccc2)c1` [Example 126]: half-maximal inhibition (IC50) required 800 nM.

In turn, `NC(=O)N(O)Cc1sccc1Br` [Example 127, N-hydroxy-N-(3-bromothien-2-yl)methyl urea] returned a concentration for half-maximal inhibition (IC50) of 1200 nM.

For `NC(=O)N(O)Cc1cc(Br)cs1` [Example 128, N-hydroxy-N-(4-bromothien-2-yl)methyl urea], inhibition was half-maximal at 2500 nM (IC50).

As for `NC(=O)N(O)Cc1ccc(Cl)s1` [Example 129, N-hydroxy-N-(5-chlorothien-2-yl)methyl urea], the half-maximal inhibitory concentration (IC50) was determined as 2000 nM.

In turn, `NC(=O)N(O)Cc1ccc(Br)s1` [Example 130, N-hydroxy-N-(5-bromothien-2-yl)methyl urea] showed a 50% inhibitory concentration (IC50) of 900 nM.

Take `CC(c1cc(Br)cs1)N(O)C(N)=O` (centres unmarked) [Example 132, N-hydroxy-N-[1-(4-bromothien-2-yl)ethyl]urea]: the IC50 was determined as 900 nM.

Turning to `CC(c1ccc(Br)s1)N(O)C(N)=O` (centres unmarked) [Example 133, N-hydroxy-N-[1-(5-bromothien-2-yl)ethyl]urea], half-maximal inhibition (IC50) required 900 nM.

With `NC(=O)N(O)Cc1sccc1Sc1ccccc1` [Example 134, N-hydroxy-N-[3-(phenylthio)thien-2-yl]methyl urea], it took 300 nM to reach half-maximal inhibition (IC50).

`NC(=O)N(O)Cc1ccc(Sc2ccccc2)s1` [Example 135, N-hydroxy-N-[5-(phenylthio)thien-2-yl]methyl urea] displayed an IC50 of 200 nM.

In turn, `NC(=O)N(O)Cc1csc(Sc2ccccc2)c1` [Example 137, N-hydroxy-N-[5-(phenylthio)thien-3-yl]methyl urea] yielded an IC50 of 400 nM.

The molecule `CC(c1ccc(Sc2ccccc2)s1)N(O)C(N)=O` (centres unmarked) [Example 139, N-hydroxy-N-[1-(5-(phenylthio)-thien-2-yl)ethyl]urea] displayed an IC50 of 400 nM. This counts as sub-micromolar.

For orientation: IC50 means the midpoint of a concentration-inhibition curve. High values mean weaker potency in that assay, low ones greater potency in that assay.

The record behind these values is patent US5185363A, “Urea based lipoxygenase inhibiting compounds” (Abbott Laboratories, priority 1991, dated 1993).
